Results taken from paper PMC5485984, “Sugar-Binding Profiles of Chitin-Binding Lectins from the Hevein Family: A Comprehensive Study” (International Journal of Molecular Sciences, 2017).
pKd: −log10 of the molar value.

Target: T1, DSA (Datura stramonium agglutinin) (Datura stramonium, UniProt A0A089ZWN7)
T1 construct: gene dsa-b; four hevein domains and extensin-like domain
T1 sequence (A0A089ZWN7 24-279): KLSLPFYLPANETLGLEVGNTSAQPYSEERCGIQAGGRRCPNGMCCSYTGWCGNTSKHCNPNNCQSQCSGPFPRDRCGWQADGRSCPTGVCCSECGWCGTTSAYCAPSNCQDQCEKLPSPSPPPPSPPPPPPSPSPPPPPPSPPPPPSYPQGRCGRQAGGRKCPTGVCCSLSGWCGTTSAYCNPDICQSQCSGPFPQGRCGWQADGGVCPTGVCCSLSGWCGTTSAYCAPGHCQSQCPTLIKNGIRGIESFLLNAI
Set-up: Frontal affinity chromatography, pyridylaminated oligosaccharides on Sepharose-immobilized lectin; Kd = Bt/(V-V0)
Conditions: binder
Experimental: For systematic comparison of sugar-binding properties of the six chitin-binding lectins, FAC was carried out with a previously established procedure. Briefly, to determine the Kd values of each of the six chitin-binding lectins for 124 PA-oligosaccharides, each of the lectins was immobilized on activated Sepharose at several concentrations: one for concentration-dependent analysis to determine the effective ligand content Bt (expressed in nmol) of a standard column, from which Kd values for a panel of PA-oligosaccharides were determined according to a simplified basic equation of FAC, Kd = Bt/(V − V0). The other(s) are supplementary to cover a wide range of possible Kd values, which is in direct relation to the observed value of V − V0 (for more detail, see Materials and Methods). […] It is often useful to discuss lectin-oligosaccharide interactions in terms of an affinity constant, Ka (1/Kd), instead of Kd. […] This was applied in the cases of DSA (6.0 and 1.5 mg/mL), UDA (6.0, 3.0, 1.0, and 0.3 mg/mL), WGA (7.0, 2.0, and 0.5 mg/mL), and LEL (6.0 and 0.5 mg/mL).

pKd	Structure (SMILES)
4.51	OC[C@@H](O)[C@@H](O[C@@H]1O[C@H](CO)[C@H](O)[C@H](O)[C@H]1O)[C@H](O)[C@@H](O)CNc1ccccn1 [compound 701, 701]
4.06	CC(=O)N[C@@H](CNc1ccccn1)[C@@H](O)[C@H](O[C@@H]1O[C@H](CO)[C@H](O)[C@H](O)[C@H]1O)[C@H](O)CO [compound 901, 901]
